Here are results for 4 molecules from patent US4344949A, “Substituted acyl derivatives of 1,2,3,4-tetrahydroisoquinoline-3-carboxylic acids” (Warner-Lambert Company, priority 1981, dated 1982).

Where a name gives a salt, the structure may show the parent alone.

In the experiment the target is T1, guinea pig serum ACE (angiotensin converting enzyme) (Cavia porcellus, UniProt H0UWL7).
T1 construct: ACE from guinea pig serum; from tissue; host or cells: guinea pig serum
T1 sequence (H0UWL7 33-1302): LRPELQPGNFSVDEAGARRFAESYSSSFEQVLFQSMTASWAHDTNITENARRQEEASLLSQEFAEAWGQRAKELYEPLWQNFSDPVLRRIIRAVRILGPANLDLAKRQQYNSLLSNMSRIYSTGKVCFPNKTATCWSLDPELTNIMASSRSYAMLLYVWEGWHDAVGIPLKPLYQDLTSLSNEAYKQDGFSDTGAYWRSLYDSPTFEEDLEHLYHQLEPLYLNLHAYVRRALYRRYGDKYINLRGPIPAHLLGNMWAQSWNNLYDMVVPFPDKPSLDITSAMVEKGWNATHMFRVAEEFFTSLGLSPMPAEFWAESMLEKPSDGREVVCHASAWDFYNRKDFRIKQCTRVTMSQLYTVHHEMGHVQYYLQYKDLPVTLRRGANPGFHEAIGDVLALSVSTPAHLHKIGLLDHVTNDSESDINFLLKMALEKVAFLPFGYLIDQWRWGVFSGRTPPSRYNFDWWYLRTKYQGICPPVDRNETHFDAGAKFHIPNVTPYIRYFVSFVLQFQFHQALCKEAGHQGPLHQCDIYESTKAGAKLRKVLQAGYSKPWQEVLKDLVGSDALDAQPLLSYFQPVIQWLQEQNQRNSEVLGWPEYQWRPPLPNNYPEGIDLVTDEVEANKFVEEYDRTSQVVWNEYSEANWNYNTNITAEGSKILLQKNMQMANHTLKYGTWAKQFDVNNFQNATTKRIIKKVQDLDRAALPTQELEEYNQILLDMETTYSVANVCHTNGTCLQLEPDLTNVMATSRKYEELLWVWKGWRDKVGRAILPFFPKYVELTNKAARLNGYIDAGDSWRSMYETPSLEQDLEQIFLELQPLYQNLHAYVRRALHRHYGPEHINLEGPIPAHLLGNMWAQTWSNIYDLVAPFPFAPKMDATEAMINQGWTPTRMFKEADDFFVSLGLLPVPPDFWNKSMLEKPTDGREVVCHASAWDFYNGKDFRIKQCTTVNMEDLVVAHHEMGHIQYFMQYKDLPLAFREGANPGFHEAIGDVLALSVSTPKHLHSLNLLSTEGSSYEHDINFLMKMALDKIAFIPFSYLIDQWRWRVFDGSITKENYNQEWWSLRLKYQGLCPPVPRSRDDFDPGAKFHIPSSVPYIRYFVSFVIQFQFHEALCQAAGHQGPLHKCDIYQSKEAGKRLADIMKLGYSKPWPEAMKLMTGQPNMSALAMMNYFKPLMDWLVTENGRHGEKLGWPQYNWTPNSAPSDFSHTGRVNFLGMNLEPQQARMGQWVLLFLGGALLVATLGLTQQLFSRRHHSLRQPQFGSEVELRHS
The experiment in a line: In vitro ACE assay (angiotensin converting enzyme inhibitory activity, guinea pig serum ACE, 3H-hippuryl-glycyl-glycine substrate). The class given is biochemical. The following applies: 10 min preincubation, 60 min incubation at 37° C., S,S,S configuration, hydrochloride salt (+) or maleate salt (#) by footnote, read-out: ACE I Activity (in vitro) IC50 Molar Conc. As for the experimental part:
In vitro ACE Assay: Angiotensin converting enzyme (ACE) inhibitory activity was determined by assaying guinea pig serum ACE in the presence and absence of the test compound. ACE from guinea pig serum and the test compounds were preincubated for 10 minutes before the addition of the labelled substrate ^3 H-hippuryl-glycyl-glycine. After a 60 minute incubation of 37° C. the reaction was stopped by the addition of 0.1 N HCl. ACE cleaves the hippuryl-glycyl bond to form the dipeptide glycyl-glycine and ^3 H-hippuric acid. The ^3 H-hippuric acid was then extracted with ethyl acetate and the ACE activity of a given sample calculated as the amount of ^3 H-hippuric acid generated.
Usually IC50 stands for the midpoint of a concentration-inhibition curve. Regarding `CCOC(=O)[C@H](CCc1ccccc1)N[C@@H](C)C(=O)N1Cc2cc(OC)c(OC)cc2C[C@H]1C(=O)O` [R=H, R2=Et, X=OCH3, Y=OCH3, 2-[2-[[1-(Ethoxycarbonyl)-3-phenylpropyl]amino]-1-oxopropyl]-1,2,3,4-tetrahydro-6,7-dimethoxy-3-isoquinolinecarboxylic Acid, Hydrochloride, Hydrate (S,S,S)], the IC50 came to 5.6 nM.
For `CCOC(=O)[C@H](CCc1ccccc1)N[C@@H](C)C(=O)N1Cc2ccccc2C[C@H]1C(=O)OC(C)(C)C` [R=t-Bu, R2=Et, X=H, Y=H], the IC50 was determined as 3200 nM.
Under `CCOC(=O)[C@H](CCc1ccccc1)N[C@@H](C)C(=O)N1Cc2cc(OC)c(OC)cc2C[C@H]1C(=O)OCc1ccccc1` [R=PhCH2, R2=Et, X=OCH3, Y=OCH3, 2-[2-[[1-(Ethoxycarbonyl)-3-phenylpropyl]amino]-1-oxopropyl]-1,2,3,4-tetrahydro-6,7-dimethoxy-3-isoquinolinecarboxylic Acid, Phenylmethyl Ester, Maleate (S,S,S)] stands 300 nM.
Under `CCOC(=O)[C@H](CCc1ccccc1)N[C@@H](C)C(=O)N1Cc2ccccc2C[C@H]1C(=O)OCc1ccccc1` [R=PhCH2, R2=Et, X=H, Y=H, 2-[2-[[1-(Ethoxycarbonyl)-3-phenylpropyl]amino]-1-oxopropyl]-1,2,3,4-tetrahydro-3-isoquinolinecarboxylic Acid, Phenylmethyl Ester, Maleate (S,S,S)] stands 2000 nM.
